Key:
Setaria [1] = assay: Herbicidal pre-emergence action, greenhouse; assay type: in vivo; settings: 1000 g a.i./ha, visual assessment after 2 to 3 weeks, 100% = plants have died
Description: (§1) 1. Herbicidal Pre-emergence Action Seeds of monocotyledonous and dicotyledonous weed and crop plants are placed into sandy loam and covered with soil. The test compounds, formulated in the form of emulsion concentrates (EC), are, in various dosages with a water application rate of 800 l/ha (converted), with wetting agent added, applied to the surface of the covering soil. After the treatment, the pots are placed in a greenhouse and kept under good growth conditions for the test plants. The visual assessment of the emergence damage on the test plants is carried out after a trial period of 2 to 3 weeks by comparison with untreated controls (herbicidal effect in percent (%): 100% effect=the plants have died, 0% effect=like control plants).

Lolium [2] = assay: Herbicidal pre-emergence action, greenhouse; assay type: in vivo; settings: 1000 g a.i./ha, visual assessment after 2 to 3 weeks, 100% = plants have died
Description: as §1

Setaria [3] = assay: Herbicidal post-emergence action, greenhouse; assay type: in vivo; settings: 1000 g a.i./ha, rated visually after 2 weeks, 100% = plants have died
Method: (§2) 2. Herbicidal Post-emergence Action Seeds of monocotyledonous and dicotyledonous weed and crop plants are placed into sandy loam, covered with soil and cultivated in a greenhouse under good growth conditions. About 2 weeks after sowing, the test plants are treated at the one-leaf stage. The test compounds, formulated as emulsion concentrates (EC), are, in various dosages with a water application rate of 800 l/ha (converted), with wetting agents added, sprayed onto the green parts of the plants. After the test plants have, been kept in the greenhouse under optimum growth conditions for 2 weeks, the effect of the preparations is rated visually in comparison to untreated controls (herbicidal effect in percent (%): 100% effect=the plants have died, 0% effect=like control plants).

Echinoclora = assay: Herbicidal post-emergence action, greenhouse; assay type: in vivo; settings: 1000 g a.i./ha, rated visually after 2 weeks, 100% = plants have died
Method: as §2

Lolium [4] = assay: Herbicidal post-emergence action, greenhouse; assay type: in vivo; settings: 1000 g a.i./ha, rated visually after 2 weeks, 100% = plants have died
Method: as §2

[5] = test system: green peach aphid (Myzus persicae); assay: Myzus test (spray treatment); assay type: in vivo; settings: 100 g/ha, spray treatment of Chinese cabbage discs
Method: Myzus Test—(Spray Treatment) Solvents: 78 parts by weight of acetone 1.5 parts by weight of dimethylformamide Emulsifier: 0.5 part by weight of alkylaryl polyglycol ether To produce a suitable preparation of active compound, 1 part by weight of active compound is mixed with the stated amount of solvents and the stated amount of emulsifier, and the concentrate is diluted with emulsifier-containing water to the desired concentration. Discs of Chinese cabbage (Brassica pekinensis) which are infested by all stages of the green peach aphid (Myzus persicae) are sprayed with a preparation of active compound of the desired concentration. After the desired period of time, the effect in % is determined. 100% means that all aphids have been killed; 0% means that none of the aphids have been killed.

melting point [°C] | SMILES | herbicidal effect in percent, Setaria (Setaria [1]) [%] | herbicidal effect in percent, Lolium (Lolium [2]) [%] | herbicidal effect in percent, Setaria (Setaria [3]) [%] | herbicidal effect in percent, Echinoclora (Echinoclora) [%] | herbicidal effect in percent, Lolium (Lolium [4]) [%] | Kill rate in % after 5 d [5] [%]
86 | Cc1scnc1-c1c(O)n2n(c1=O)CCCC2 (single isomer, unassigned) [Example I-3-b-2] | – | – | – | – | – | –
182 | Cc1scnc1-c1c(O)n2n(c1=O)CCCC2 (single isomer, unassigned) [Example I-3-b-3] | – | – | – | – | – | –
– | CCCc1cc(-c2ccc(Cl)cc2)nn1-c1c(O)n2n(c1=O)CCCC2 [Example I-3-a-1] | 100 | 100 | 100 | 100 | 90 | 100

— patent US7420062B2, “Hetaryl-substituted pyrazolidindione derivatives with pesticidal characteristics” (Bayer CropScience, AG, priority 2003, dated 2008)
